The melting point is the temperature of the solid-liquid transition. On to `CC(=O)N[C@H](CC(N)=O)C(=O)Nc1ccc(-c2ccc(C(=O)O)c(=O)[nH]2)cc1`, for which the melting point fell in the range of 265 to 266 °C.
The figure for `CCOC(=O)c1c(Cl)c2ccc(C)nc2n(C)c1=O` is 108 to 111 °C.
In turn, `N#Cc1cc(OCCOCC2CC2)ccc1OCC(O)CNCCNC(=O)Nc1ccccc1` (centres undefined) had a melting point of 110 to 113 °C.
Compound `CC(=O)SCCC1C(=O)N2CCCC(C(=O)OC(C)(C)C)N2C1=O` (centres undefined) showed a melting point of 86 to 88 °C.
The result for `CCC1COC(c2ccc(C#N)c(F)c2)OC1` (centres undefined) reads 49 °C; that for `O=c1c2ccccc2[nH]c2c(OCCCCN(CCCl)CCCl)cccc12`, 119 °C.
In the case of `CCCCC1(N(C)C)CCC(c2[nH]c3ccc(C#N)cc3c2C)CC1` (centres undefined), the melting point is 162 to 166 °C.
On to `Cc1ccccc1-c1cc(N2CCS(=O)(=O)CC2)ncc1N(C)C(=O)C(C)(C)c1cc(C(F)(F)F)cc(C(F)(F)F)c1`, for which the melting point was 200 to 201 °C.
Regarding `CCOC(=O)C(=O)Nc1cc(C#N)ccc1O`, the melting point came to 295 °C.
As to `CCOC(=O)c1ccc(N2CSCC2=O)cc1`, the melting point fell in the range of 68 to 69 °C.
The result for `CC1(C)CCC(C)(C)c2cc(C#Cc3ccc(-c4nnn[nH]4)cc3)ccc21` reads 227 to 228 °C; that for `COc1ccc(CN2CC(c3ccccc3)=C(O)C2=O)cc1`, 195 to 198 °C; that for `O=C(Nc1ccn(C(=O)c2ccccc2)c(=O)n1)c1ccccc1`, 215 to 216 °C.
For the compound `CC(C)CCOC(=O)c1cccc(-c2cn(C)cc(-n3cccn3)c2=O)c1`, the melting point lay in the range of 115 to 118 °C.
The figure for `COc1ccc(-c2nnc3c4ccccc4c(Nc4ccc(N)cc4)nn23)cc1` is 295 °C; for `O=C(O)COc1ccc2c(-c3ccccc3F)noc2c1Cl` it is 188 to 189 °C.
The result for `CCCC=C(c1ccccc1N1CCCCC1)C(C(N)=O)c1ccc(C(=O)OCC)cc1` (centres undefined) reads 94 to 97 °C.
Compound `CC(=O)Nc1nc(NC(C)CCc2ccccc2)nc(C(C)(C)F)n1` (centres undefined) came in with a melting point of 91 °C.
The compound `Nc1ccc2c(c1)CC(N)CC2` (single isomer, unassigned; (+)) yielded a melting point of 33 to 34 °C.
`O=C(NCc1ccccc1)NNC(=O)c1ccc(Cl)cc1` returned a melting point of 244 to 246 °C.
Consider `Cc1ccccc1C(C(=O)N[C@H]1CCN(CCc2ccc(F)cc2)C1)c1ccccc1C`, for which the melting point fell in the range of 108 to 110 °C.
The compound `CSC1=C([N+](=O)[O-])CCCN1` registered a melting point of 230 to 232 °C.
Compound `O=C(Nc1ccccc1)c1ccc(Nc2ccccc2)nc1` showed a melting point of 264 to 266 °C.
`COC(=O)c1ccc(NC(=O)C=C(C)c2cc(C(C)C)c(C(C)C)o2)cc1`: the melting point was in the range of 167 to 169 °C.
The figure for `CC(C)(CCn1cncn1)NCC(O)c1ccc(O)c(CO)c1` (centres undefined) is 177 to 180 °C; for `Cc1cc(-c2cc(CN3CCN(C)CC3)c(=O)n(Cc3ccccc3Cl)n2)ccc1F` it is 150 to 151 °C.
Compound `c1ccc(COc2ccc(-c3nc(COc4ccc(CCCn5ccnc5)cc4)co3)cc2)cc1` showed a melting point of 133 to 134 °C.
`CC1=CC(O)C(O)C(C)(C)CC1O` (centres undefined): the melting point lay in the range of 138 to 139 °C.
The result for `C[C@@H](S)[C@](O)(Cn1ccnc1)c1ccc(F)cc1F` reads 125 to 135 °C; that for `Brc1ccc(SCCOCCSc2ccc(Br)cc2)cc1`, 53 °C; that for `CCN1c2ncc(COc3ccncc3)cc2C(=O)N(C)c2ccc(Cl)nc21`, 169 to 170 °C.
`Cn1nnnc1CN1C2CCC1CC(Oc1ccc(Cl)c(Cl)c1)C2` (centres undefined) displayed a melting point of 119 to 120 °C.
On to `CN1C(=O)[C@H](NC(=O)/C=C/c2ccc(C(F)(F)F)cc2)N=C(c2ccccc2)c2ccccc21`, for which the melting point lay within 133 to 137 °C.
`O=C(O)/C=C(\c1cc(F)cc(F)c1)C(F)(F)F` yielded a melting point of 129 to 130 °C.
Consider `CCCc1nc(-n2c(C)ccc2C)c(C(=O)OC)[nH]1`, for which the melting point lay in the range of 175 to 176 °C.
For `Cc1ccc(S(=O)(=O)OCC2Cc3cc(F)cc(Br)c3O2)cc1` (centres undefined), the melting point is 84 to 86 °C.
The figure for `CC(=O)Nc1ccc(NC(=O)C=C2CC(C(=O)OCc3ccccc3)Nc3cc(Cl)cc(Cl)c32)cc1` (racemic) is 275 °C.
The result for `O=Cc1nc2cnccc2s1` reads 96.5 to 98 °C; that for `O=Cc1cccc(C=Cc2ccc3ccccc3n2)c1`, 78.6 to 80.8 °C.
For the compound `CNC(=NOC)C1=Nc2ccc(Cl)cc2C(c2ccccc2F)=NC1`, the melting point lay within 140 to 142 °C.
The result for `CCCCC1(N(C)C)CCC(c2[nH]c3ccccc3c2C)(c2[nH]c3ccccc3c2CCN)CC1` (centres undefined) reads 105 to 112 °C.
`COc1cn(-c2ccc(-n3cccn3)cc2F)nc(-c2ccnn2-c2ccccc2)c1=O` yielded a melting point of 214 to 216 °C.
In the case of `Cc1cnn(C(C)C(=O)N(C)C)c1-c1ccccc1` (centres undefined), the melting point was in the range of 88 to 90 °C.
The figure for `CC1(Oc2ccccc2)CN(Cc2ccc(COc3cccc4c3CN(C3CCC(=O)NC3=O)C4=O)cc2)C1` (centres undefined) is 127 to 129 °C; for `COC(=O)CCc1cc2cc(Cl)ccc2n1S(=O)(=O)c1ccc(OC)cc1` it is 98 to 99 °C.
For `Cc1cc(C)c2c(=O)n(CC(=O)N3CCNCC3)sc2n1`, the melting point lay within 175 to 177 °C.
Compound `COCCO[C@H]1c2ccn3c(C)c(C)nc3c2N[C@H](c2ccccc2)[C@H]1OC(=O)c1ccccc1` had a melting point of 78 to 80 °C.
The compound `COc1ccccc1S(=O)C1CC(=O)N1CC(=O)CCc1ccccc1` (centres undefined) returned a melting point of 129 to 131 °C.
The figure for `Clc1c(OCCN2CCCCC2)ccc2cc3ccc(OCCN4CCCCC4)c(Cl)c3nc12` is 173 to 174 °C.
In turn, `Nc1ccccc1CS(=O)c1nc2ccccc2[nH]1` (centres undefined) had a melting point of 164 to 165 °C.
Compound `CCOC(=O)CNC(=O)COc1c(F)cc(CSCCNS(=O)(=O)c2ccc(Cl)cc2)cc1F` yielded a melting point of 88.5 to 89.5 °C.
The compound `O=C1NC(C2CCCCC2)C1O` (centres undefined) returned a melting point of 140 °C.
On to `CN1CCC(Oc2ccc(C#N)cc2C(F)(F)F)CC1`, for which the melting point lay within 66 to 69 °C.
Consider `COc1ccc(OCC(O)CN2CCN(C(N)=O)CC2)cc1` (centres undefined), for which the melting point was in the range of 192 to 195 °C.
In turn, `O=C1COc2cc(NCC(=O)N3CCC(Oc4ccc(Cl)cc4)CC3)ccc2N1` yielded a melting point of 207 to 210 °C.
The compound `CC(C)N1CCN(c2ccc(OCC(O)CC(O)(Cn3cncn3)c3ccc(Cl)cc3Cl)cc2)CC1` (centres undefined) yielded a melting point of 131 to 132 °C.
The figure for `COC(=O)c1cccc(C=C2COc3ccc(OCc4ccccc4)cc3C2=O)c1` is 109 to 112 °C.
Turning to `CC(c1ccc(OCCC2OCCCO2)cc1)(c1ccc(OCCC2OCCCO2)cc1)c1ccc(OCCC2OCCCO2)cc1`, the melting point came out at 101 °C.
With `COP(=O)(O)Cc1ccc(O)cc1`, the melting point was 89 to 91 °C.
With `O=C(O)Cc1c(C(=O)c2cccc(Cl)c2)[nH]c2ccc(Cl)cc12`, the melting point lay within 243 to 247 °C.
As for `CC(C)(CC(O)(Cn1ccc2c1CCCC2=O)C(F)(F)F)c1cc(S(C)(=O)=O)cc2c1OCC2` (centres undefined), the melting point lay within 207 to 208 °C.
For `CC(C)(C)c1cccc(S(=O)(=O)n2c(CCCC(=O)O)cc3cc(C(F)(F)F)ccc32)c1`, the melting point fell in the range of 135 to 141 °C.
In turn, `CCCCC#CC#CCOc1ccc(C(=O)O)cc1` displayed a melting point of 165 to 166 °C.
As to `COc1ccc2c(C3CCN(CCCn4c(=O)[nH]c5ccccc54)CC3)noc2c1`, the melting point was 176 to 178 °C.
Take `COc1ccc(-c2ccc(C(=O)Nc3ccc4cc(CN5CCCC5)cnc4c3)cc2)cc1`: the melting point was in the range of 202 to 204 °C.
`Nc1nonc1C(=O)NCCCCCC(=O)NO` yielded a melting point of 150 to 152 °C.
The result for `CS(=O)c1ccc(C2=C(c3ccccc3)C(=O)C(C)(C)O2)c(Cl)c1` (centres undefined) reads 135 to 136 °C; that for `COc1cc(C(C)C)c2c(c1)S(=O)(=O)N(COc1cc(C(F)(F)F)nn1-c1ccccn1)C2=O`, 132 to 133 °C; that for `COCCOc1c(C)cc(-c2nc3cc(OC)cc(OC)c3c(=O)[nH]2)cc1C`, 201 to 202 °C.
`Nc1ccc(Oc2ccc(O)cc2)cc1` showed a melting point of 130 to 134 °C.
Consider `CCC(C)COc1ccc(-c2ccc(O)cc2)cc1Br` (centres undefined), for which the melting point lay within 75 to 76.5 °C.
`O=C(O)c1cc(NC(=O)C(CS)Cc2ccccc2)cc(C(F)(F)F)c1` (centres undefined) had a melting point of 71 to 74 °C.
The figure for `CSc1cc2cc(C)ccc2cc1C=O` is 117 to 118 °C; for `Cc1ccc(OC2SCC(O)C(O)C2O)cn1` (centres undefined) it is 233 °C; for `COC(=O)c1cc(N2CCC2)c(C(F)(F)F)cc1N` it is 80 to 86 °C.
Take `Nc1oc2ccc([N+](=O)[O-])cc2c(=O)c1C=O`: the melting point was 228 to 229 °C.
`Cc1cccc(-c2n[nH]cc2-c2ccc(F)c(-c3ccc(O)cc3)c2)n1` had a melting point of 72 to 74 °C.
Regarding `O=C(O)COc1cccc2c(CC(O)CCC(c3ccccc3)c3ccccc3)coc12` (centres undefined), the melting point is 155 to 157 °C.
The compound `C[C@]12CC[C@H](O)CC1=CCC1C2CC[C@@]2(C)C1CC[C@H]2n1cc(-c2ccccc2)nn1` (some centres undefined) yielded a melting point of 234 to 236 °C.
In turn, `CCOC(=O)C(C)(C)NC(=O)C(Br)c1ccccc1` (centres undefined) showed a melting point of 81 to 83 °C.
`CCOc1cc(-c2cnc3[nH]cc(C(=O)C(C)(C)C)c3n2)cc(N2CCCC2)c1` displayed a melting point of 236 to 237 °C.
The figure for `CCC(=O)NCCC1CCc2cc(Br)c3c(c21)C=CCO3` (centres undefined) is 110 to 111 °C.
On to `OCCCOc1nc(N2CCCCC2)c2nc(OCCCO)nc(N3CCCCC3)c2n1`, for which the melting point was 154 to 156 °C.
Turning to `CCS(=O)(=O)c1ccc(-c2coc3ccc(-c4nnc(C)o4)cc23)cc1F`, the melting point was in the range of 200 to 201 °C.
For the compound `O=[N+]([O-])c1ccc2sc3ccc(F)cc3c2c1`, the melting point lay within 200 to 202 °C.
The figure for `NC(=NO)c1nc(Cl)c(-c2c(F)cccc2Cl)c(Cl)c1Br` is 132 °C; for `CC(NC(=O)Cc1cc(F)cc(F)c1)C(=O)NC1C(=O)NCc2cc(F)ccc21` (centres undefined) it is 195 to 200 °C.
Compound `O=S(=O)(Nc1ccccc1CO)C(F)(F)F` registered a melting point of 60 to 61 °C.
For the compound `COc1cc2oc(=O)c3c(c2cc1OC)CCN(CCN1CC2CCCC(C2)C1)C3`, the melting point is 122 to 125 °C.

(Values after a melting point compilation (Tetko et al.; mined from patent text by program, amines drawn as free bases though some values may be those of a salt).)
